Measured values published in patent US20140039044A1, “Hydroxylated Polymethoxyflavone Compositions” (WLLGEN, INC., priority 2006, published 2014).
Read-outs that look alike come from different tables or passages of the source.

Key:
Format in all cases: cell-based, human
AGS cells [1] = assay: Cell cycle distribution by flow cytometry; settings: 24 h, Table 11
Method in brief: (§1)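 Human cancer cells (2×10^5 per dish) exposed 24 h to compound at 5–100 μM, or DMSO. Cells ethanol-fixed at −20° C overnight, RNase/Triton-treated at 37° C for 30 min, then stained with propidium iodide. DNA content read by FACScan flow cytometry to give phase distribution.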

COLO205 cells [2] = assay: Cell cycle distribution by flow cytometry; settings: COLO205 cells, 24 h, Table 12
Method in brief: as §1

AGS cells [3] = assay: Cell survival assay (antiproliferative IC50); settings: AGS cells, read-out: Antiproliferative IC50
HL-60 cells = assay: Cell survival assay (antiproliferative IC50); settings: HL-60 cells, read-out: Antiproliferative IC50
COLO205 cells [4] = assay: Cell survival assay (antiproliferative IC50); settings: COLO205 cells, read-out: Antiproliferative IC50
HT-29 cells = assay: Cell cycle distribution by flow cytometry; settings: for Cell Cycle Distribution G0/G1 / Cell Cycle Distribution G2/M / Cell Cycle Distribution S: 24 h; for Cell cycle arrest, in words: 5-100 μM, 24 h exposure
Method in brief: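 Cells were treated 24 h with compound at 5, 10, 25, 50 or 100 μM, or with DMSO. They were then ethanol-fixed, RNase-treated and stained with propidium iodide. DNA content was measured by FACScan flow cytometry to give cell-cycle phase distribution.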

## COc1cc(-c2cc(=O)c3c(OC)c(OC)c(OC)c(OC)c3o2)ccc1O [Compound G, 4′-hydroxy-5,6,7,8,3′-pentamethoxyflavone]
AGS cells [1]; 5 μM
  Cell Cycle Distribution G0/G1: 55.39 ± 0.47
  Cell Cycle Distribution G2/M: 16.76 ± 0.86
  Cell Cycle Distribution S: 27.86 ± 1.32
AGS cells [1]; 10 μM
  Cell Cycle Distribution G0/G1: 60.42 ± 1.28
  Cell Cycle Distribution G2/M: 16.80 ± 1.75
  Cell Cycle Distribution S: 22.79 ± 0.47
AGS cells [1]; 25 μM
  Cell Cycle Distribution G0/G1: 68.29 ± 0.95
  Cell Cycle Distribution G2/M: 14.39 ± 0.16
  Cell Cycle Distribution S: 17.33 ± 0.80
AGS cells [1]; 50 μM
  Cell Cycle Distribution G0/G1: 62.27 ± 0.06
  Cell Cycle Distribution G2/M: 22.98 ± 1.90
  Cell Cycle Distribution S: 14.78 ± 1.83
AGS cells [1]; 100 μM
  Cell Cycle Distribution G0/G1: 50.27 ± 0.52
  Cell Cycle Distribution G2/M: 26.85 ± 1.85
  Cell Cycle Distribution S: 22.88 ± 2.38
COLO205 cells [2]; 5 μM
  Cell Cycle Distribution G0/G1: 67.93 ± 0.74
  Cell Cycle Distribution G2/M: 4.71 ± 0.18
  Cell Cycle Distribution S: 27.36 ± 0.56
COLO205 cells [2]; 10 μM
  Cell Cycle Distribution G0/G1: 72.87 ± 2.37
  Cell Cycle Distribution G2/M: 4.51 ± 0.08
  Cell Cycle Distribution S: 22.64 ± 2.28
COLO205 cells [2]; 25 μM
  Cell Cycle Distribution G0/G1: 73.74 ± 0.51
  Cell Cycle Distribution G2/M: 6.47 ± 0.93
  Cell Cycle Distribution S: 19.80 ± 0.42
COLO205 cells [2]; 50 μM
  Cell Cycle Distribution G0/G1: 73.90 ± 0.41
  Cell Cycle Distribution G2/M: 8.17 ± 0.23
  Cell Cycle Distribution S: 17.94 ± 0.17
COLO205 cells [2]; 100 μM
  Cell Cycle Distribution G0/G1: 73.05 ± 0.30
  Cell Cycle Distribution G2/M: 7.61 ± 0.46
  Cell Cycle Distribution S: 19.35 ± 0.76
AGS cells [3]; Homo sapiens
  IC50: 70.5 ± 9.97 µM
HL-60 cells; Homo sapiens
  IC50: 47.4 ± 3.64 µM
COLO205 cells [4]; Homo sapiens, COLO 205
  IC50: 83.7 ± 4.96 µM
HT-29 cells; 5 μM
  Cell Cycle Distribution G0/G1: 56.92 ± 1.98
  Cell Cycle Distribution G2/M: 12.42 ± 0.44
  Cell Cycle Distribution S: 30.66 ± 2.43
HT-29 cells; 10 μM
  Cell Cycle Distribution G0/G1: 58.01 ± 1.22
  Cell Cycle Distribution G2/M: 9.97 ± 2.10
  Cell Cycle Distribution S: 32.03 ± 0.88
HT-29 cells; 25 μM
  Cell Cycle Distribution G0/G1: 74.38 ± 1.68
  Cell Cycle Distribution G2/M: 6.18 ± 0.06
  Cell Cycle Distribution S: 19.55 ± 1.59
HT-29 cells; 50 μM
  Cell Cycle Distribution G0/G1: 84.63 ± 1.16
  Cell Cycle Distribution G2/M: 7.99 ± 0.01
  Cell Cycle Distribution S: 7.39 ± 1.16
HT-29 cells; 100 μM
  Cell Cycle Distribution G0/G1: 75.28 ± 1.61
  Cell Cycle Distribution G2/M: 14.63 ± 0.21
  Cell Cycle Distribution S: 10.11 ± 1.82
HT-29 cells
  Cell cycle arrest, in words: significant accumulation of cells in G1 phase

## COc1cc(-c2cc(=O)c3c(OC)c(OC)c(OC)c(OC)c3o2)cc(OC)c1OC [F, 5,6,7,8,3′,4′,5′-heptamethoxyflavone, reference compound]
AGS cells [1]; 5 μM
  Cell Cycle Distribution G0/G1: 58.22 ± 1.10
  Cell Cycle Distribution G2/M: 14.76 ± 0.94
  Cell Cycle Distribution S: 27.02 ± 0.17
AGS cells [1]; 10 μM
  Cell Cycle Distribution G0/G1: 62.41 ± 6.13
  Cell Cycle Distribution G2/M: 14.56 ± 0.58
  Cell Cycle Distribution S: 23.04 ± 5.55
AGS cells [1]; 25 μM
  Cell Cycle Distribution G0/G1: 62.24 ± 0.71
  Cell Cycle Distribution G2/M: 15.34 ± 1.30
  Cell Cycle Distribution S: 22.57 ± 2.21
AGS cells [1]; 50 μM
  Cell Cycle Distribution G0/G1: 65.87 ± 0.93
  Cell Cycle Distribution G2/M: 13.05 ± 0.98
  Cell Cycle Distribution S: 21.08 ± 1.90
AGS cells [1]; 100 μM
  Cell Cycle Distribution G0/G1: 64.22 ± 5.56
  Cell Cycle Distribution G2/M: 13.92 ± 1.06
  Cell Cycle Distribution S: 21.86 ± 4.50
COLO205 cells [2]; 5 μM
  Cell Cycle Distribution G0/G1: 68.30 ± 1.36
  Cell Cycle Distribution G2/M: 8.71 ± 0.55
  Cell Cycle Distribution S: 23.00 ± 0.80
COLO205 cells [2]; 10 μM
  Cell Cycle Distribution G0/G1: 71.96 ± 0.24
  Cell Cycle Distribution G2/M: 8.38 ± 0.43
  Cell Cycle Distribution S: 19.67 ± 0.67
COLO205 cells [2]; 25 μM
  Cell Cycle Distribution G0/G1: 72.22 ± 0.54
  Cell Cycle Distribution G2/M: 9.80 ± 0.20
  Cell Cycle Distribution S: 17.98 ± 0.74
COLO205 cells [2]; 50 μM
  Cell Cycle Distribution G0/G1: 76.39 ± 0.85
  Cell Cycle Distribution G2/M: 8.02 ± 0.50
  Cell Cycle Distribution S: 15.60 ± 1.35
COLO205 cells [2]; 100 μM
  Cell Cycle Distribution G0/G1: 78.64 ± 0.34
  Cell Cycle Distribution G2/M: 8.65 ± 0.19
  Cell Cycle Distribution S: 12.71 ± 0.52
AGS cells [3]; Homo sapiens
  IC50: > 100 µM
HL-60 cells; Homo sapiens
  IC50: 47 ± 4 µM
COLO205 cells [4]; Homo sapiens, COLO 205
  IC50: 92.6 ± 15 µM
HT-29 cells; 5 μM
  Cell Cycle Distribution G0/G1: 70.24 ± 0.52
  Cell Cycle Distribution G2/M: 7.11 ± 0.17
  Cell Cycle Distribution S: 22.66 ± 0.35
HT-29 cells; 10 μM
  Cell Cycle Distribution G0/G1: 76.34 ± 0.35
  Cell Cycle Distribution G2/M: 7.06 ± 0.42
  Cell Cycle Distribution S: 16.61 ± 0.06
HT-29 cells; 25 μM
  Cell Cycle Distribution G0/G1: 82.19 ± 0.16
  Cell Cycle Distribution G2/M: 6.83 ± 0.61
  Cell Cycle Distribution S: 10.98 ± 0.45
HT-29 cells; 50 μM
  Cell Cycle Distribution G0/G1: 88.64 ± 0.27
  Cell Cycle Distribution G2/M: 6.25 ± 0.58
  Cell Cycle Distribution S: 5.11 ± 0.31
HT-29 cells; 100 μM
  Cell Cycle Distribution G0/G1: 89.85 ± 0.13
  Cell Cycle Distribution G2/M: 6.07 ± 0.06
  Cell Cycle Distribution S: 4.10 ± 0.06
HT-29 cells
  Cell cycle arrest, in words: significant accumulation of cells in G1 phase

## COc1ccc(-c2oc3c(OC)c(OC)c(OC)c(OC)c3c(=O)c2O)cc1OC [B, 3-hydroxy-5,6,7,8,3′,4-hexamethoxyflavone]
AGS cells [1]; 5 μM
  Cell Cycle Distribution G0/G1: 47.1 ± 1.27
  Cell Cycle Distribution G2/M: 5.6 ± 0.28
  Cell Cycle Distribution S: 45.8 ± 1.20
AGS cells [1]; 10 μM
  Cell Cycle Distribution G0/G1: 46.7 ± 0.92
  Cell Cycle Distribution G2/M: 10.4 ± 0.07
  Cell Cycle Distribution S: 44.1 ± 0.57
AGS cells [1]; 25 μM
  Cell Cycle Distribution G0/G1: 39.8 ± 0.78
  Cell Cycle Distribution G2/M: 6.5 ± 0.07
  Cell Cycle Distribution S: 54.2 ± 0.28
AGS cells [1]; 50 μM
  Cell Cycle Distribution G0/G1: 43.1 ± 1.56
  Cell Cycle Distribution G2/M: 7.4 ± 0.42
  Cell Cycle Distribution S: 51.2 ± 1.06
AGS cells [1]; 100 μM
  Cell Cycle Distribution G0/G1: 46.8 ± 0.28
  Cell Cycle Distribution G2/M: 9.3 ± 0.42
  Cell Cycle Distribution S: 44.5 ± 0.14
COLO205 cells [2]; 5 μM
  Cell Cycle Distribution G0/G1: 63.59 ± 0.48
  Cell Cycle Distribution G2/M: 0.89 ± 0.94
  Cell Cycle Distribution S: 35.53 ± 0.46
COLO205 cells [2]; 10 μM
  Cell Cycle Distribution G0/G1: 63.12 ± 0.20
  Cell Cycle Distribution G2/M: 5.63 ± 0.28
  Cell Cycle Distribution S: 31.25 ± 0.48
COLO205 cells [2]; 25 μM
  Cell Cycle Distribution G0/G1: 64.96 ± 0.99
  Cell Cycle Distribution G2/M: 0.41 ± 0.31
  Cell Cycle Distribution S: 34.63 ± 0.68
COLO205 cells [2]; 50 μM
  Cell Cycle Distribution G0/G1: 63.32 ± 0.52
  Cell Cycle Distribution G2/M: 0.31 ± 0.11
  Cell Cycle Distribution S: 36.39 ± 0.62
COLO205 cells [2]; 100 μM
  Cell Cycle Distribution G0/G1: 78.51 ± 0.63
  Cell Cycle Distribution G2/M: 3.99 ± 0.95
  Cell Cycle Distribution S: 17.51 ± 1.58
AGS cells [3]
  IC50: 72.3 ± 7.91 µM
HL-60 cells
  IC50: > 100 µM
COLO205 cells [4]
  IC50: 23.3 ± 1.56 µM
HT-29 cells; 5 μM
  Cell Cycle Distribution G0/G1: 63.71 ± 1.80
  Cell Cycle Distribution G2/M: 6.50 ± 0.37
  Cell Cycle Distribution S: 29.8 ± 1.42
HT-29 cells; 10 μM
  Cell Cycle Distribution G0/G1: 69.27 ± 3.06
  Cell Cycle Distribution G2/M: 5.60 ± 0.85
  Cell Cycle Distribution S: 25.14 ± 2.21
HT-29 cells; 25 μM
  Cell Cycle Distribution G0/G1: 70.85 ± 1.84
  Cell Cycle Distribution G2/M: 4.37 ± 0.62
  Cell Cycle Distribution S: 24.8 ± 1.23
HT-29 cells; 50 μM
  Cell Cycle Distribution G0/G1: 70.11 ± 1.44
  Cell Cycle Distribution G2/M: 10.73 ± 0.47
  Cell Cycle Distribution S: 19.18 ± 0.96
HT-29 cells; 100 μM
  Cell Cycle Distribution G0/G1: 66.75 ± 1.06
  Cell Cycle Distribution G2/M: 8.82 ± 0.26
  Cell Cycle Distribution S: 24.45 ± 0.80
